Assay results: patent US10392347B2, “2,4-dihydroxy-nicotinamides as APJ agonists” (BRISTOL-MYERS SQUIBB COMPANY, priority 2015, dated 2019)
Read-outs that look alike come from different tables or passages of the source.

Biological target: T1, human APJ receptor (Homo sapiens, UniProt P35414)
T1 construct: expressed in transfected cells
T1 sequence (P35414 1-380): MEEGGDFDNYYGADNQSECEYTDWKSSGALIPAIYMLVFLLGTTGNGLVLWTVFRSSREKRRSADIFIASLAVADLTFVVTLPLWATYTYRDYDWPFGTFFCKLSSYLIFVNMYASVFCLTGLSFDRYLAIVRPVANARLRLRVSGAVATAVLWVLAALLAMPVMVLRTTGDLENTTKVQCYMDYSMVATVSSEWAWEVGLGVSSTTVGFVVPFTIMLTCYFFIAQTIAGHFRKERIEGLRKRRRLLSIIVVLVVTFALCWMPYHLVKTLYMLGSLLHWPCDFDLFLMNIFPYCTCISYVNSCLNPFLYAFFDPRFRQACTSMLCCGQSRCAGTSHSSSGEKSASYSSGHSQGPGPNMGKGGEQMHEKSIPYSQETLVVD
Experiment: Intracellular cAMP accumulation assay (APJ hcAMP, HTRF)
Format: cell-based
Conditions: HEK293 cells stably expressing human APJ
Procedure: Intracellular cAMP Accumulation Assay
HEK293 cells stably expressing human APJ receptor were used to assess the activity of compounds. Cultured cells were detached and resuspended in the cAMP Homogeneous Time-Resolved Fluorescence (HTRF) assay buffer (Cisbio cat; #62AM4PEJ). […] Serial dilutions of a compound together with assay buffer containing […] and 2 μM forskolin were added to each well containing 5,000 cells and incubated for 30 minutes at room temperature. Subsequently, cAMP D2 reagent was added in the lysis buffer followed by the EuK antibody (Cisbio; cat #62AM4PEJ) and incubated for 60 min. The fluorescence emission ratio was measured using fluorometer. The intracellular cAMP concentrations (compound-stimulated inhibition of forskolin-mediated cAMP production) were calculated by extrapolation from a standard curve using known cAMP concentrations. The EC50 values were obtained by fitting the data to a sigmoidal concentration-response curve with variable slope.
The EC50 value of each compound is presented at the end of the example description.
The biological activity of the exemplified compounds of this invention determined by the assay described above is shown at the end of each example.

[1] = Table 1, forskolin-stimulated cAMP, read-out: APJ cAMP EC50
[2] = Table 3, forskolin-stimulated cAMP, read-out: APJ cAMP EC50
[3] = Table 4, forskolin-stimulated cAMP, read-out: Human cAMP EC50

EC50 [1] [nM] | EC50 [2] [nM] | SMILES | also measured
10 to 100 | – | CCCCc1nc(O)c(C(=O)N2CCN(c3ccccc3Cl)CC2)c(O)c1-c1c(OC)cccc1OC [Example 57, 6-butyl-3-[4-(2-chlorophenyl)piperazine-1-carbonyl]-5-(2,6-dimethoxyphenyl)pyridine-2,4-diol] | –
10 to 100 | – | CCCCc1nc(O)c(C(=O)N2CCN(c3cccc(Cl)c3)CC2)c(O)c1-c1c(OC)cccc1OC [Example 58, 6-butyl-3-[4-(3-chlorophenyl)piperazine-1-carbonyl]-5-(2,6-dimethoxyphenyl)pyridine-2,4-diol] | –
10 to 100 | – | CCCCc1nc(O)c(C(=O)N2CCN(c3ccccn3)CC2)c(O)c1-c1c(OC)cccc1OC [Example 59] | –
10 to 100 | – | CCCCc1nc(O)c(C(=O)N2CCC(N3CCCC3)CC2)c(O)c1-c1c(OC)cccc1OC [Example 61, 6-butyl-5-(2,6-dimethoxyphenyl)-3-[4-(pyrrolidin-1-yl)piperidine-1-carbonyl]pyridine-2,4-diol] | –
10 to 100 | – | CCCCc1nc(O)c(C(=O)N2CCN(C3CCCCC3)CC2)c(O)c1-c1c(OC)cccc1OC [Example 63, 6-butyl-3-(4-cyclohexylpiperazine-1-carbonyl)-5-(2,6-dimethoxyphenyl)pyridine-2,4-diol] | –
10 to 100 | – | CCCCc1nc(O)c(C(=O)N2CCC3(CC2)OCc2ccccc23)c(O)c1-c1c(OC)cccc1OC [Example 64, 6-butyl-5-(2,6-dimethoxyphenyl)-3-({3H-spiro[2-benzofuran-1,4′-piperidine]-1′-yl}carbonyl)pyridine-2,4-diol] | –
10 to 100 | – | CCCCc1nc(O)c(C(=O)N2CCC3(CC2)CC(=O)Nc2ccccc23)c(O)c1-c1c(OC)cccc1OC [Example 66, 1-[6-butyl-5-(2,6-dimethoxyphenyl)-2,4-dihydroxypyridine-3-carbonyl]-2′,3′-dihydro-1′H-spiro[piperidine-4,4′-quinoline]-2′-one] | –
10 to 100 | – | CCCCc1nc(O)c(C(=O)N2CCN(c3ccc(Cl)cc3)CC2)c(O)c1-c1c(OC)cccc1OC [Example 68, 6-butyl-3-[4-(4-chlorophenyl)piperazine-1-carbonyl]-5-(2,6-dimethoxyphenyl)pyridine-2,4-diol] | –
10 to 100 | – | CCCCc1nc(O)c(C(=O)N2CCC(c3nc(-c4cccnc4)no3)CC2)c(O)c1-c1c(OC)cccc1OC [Example 69, 6-butyl-5-(2,6-dimethoxyphenyl)-3-{4-[3-(pyridin-3-yl)-1,2,4-oxadiazol-5-yl]piperidine-1-carbonyl}pyridine-2,4-idiol] | –
– | 0.01 to 10 | CCCCc1nc(O)c(C(=O)N2CCC(c3ccc(Cl)cn3)C2)c(O)c1-c1c(OC)cccc1OC (stereo not drawn) [Example 75, 6-butyl-3-[3-(5-chloropyridin-2-yl)pyrrolidine-1-carbonyl]-5-(2,6-dimethoxyphenyl)pyridine-2,4-diol] | –
– | 0.01 to 10 | CCOCc1nc(O)c(C(=O)N2CCC(c3ccc(Cl)cn3)C2)c(O)c1-c1c(OC)cccc1OC (stereo not drawn) [Example 76, 3-[3-(5-chloropyridin-2-yl)pyrrolidine-1-carbonyl]-5-(2,6-dimethoxyphenyl)-6-(ethoxymethyl)pyridine-2,4-diol] | –
– | 0.01 to 10 | CCCCc1nc(O)c(C(=O)N2CCC(c3ncccc3F)C2)c(O)c1-c1c(OC)cccc1OC (stereo not drawn) [Example 78, 6-butyl-5-(2,6-dimethoxyphenyl)-3-[3-(3-fluoropyridin-2-yl)pyrrolidine-1-carbonyl]pyridine-2,4-diol] | –
– | 0.01 to 10 | CCCCc1nc(O)c(C(=O)N2CCC(c3ncccc3F)C2)c(O)c1-c1c(OC)cccc1OC (stereo not drawn) [Example 81, 6-butyl-5-(2,6-dimethoxyphenyl)-3-[3-(3-fluoropyridin-2-yl)pyrrolidine-1-carbonyl]pyridine-2,4-diol] | –
– | 0.01 to 10 | CCOCc1nc(O)c(C(=O)N2CCC(c3ncc(F)cc3F)C2)c(O)c1-c1c(OC)cccc1OC (stereo not drawn) [Example 84, 3-[3-(3,5-difluoropyridin-2-yl)pyrrolidine-1-carbonyl]-5-(2,6-dimethoxyphenyl)-6-(ethoxymethyl)pyridine-2,4-diol] | –
– | 0.01 to 10 | COc1cccc(OC)c1-c1c(-c2ccc(F)cc2)nc(O)c(C(=O)N2CCC(c3ccccc3F)C2)c1O (stereo not drawn) [Example 86, (5-(2,6-dimethoxyphenyl)-6-(4-fluorophenyl)-2,4-dihydroxypyridin-3-yl)(3-(2-fluorophenyl)pyrrolidin-1-yl)methanone] | –

The remaining lines, values behind:

SMILES | EC50 [1] [nM] | EC50 [2] [nM] | also measured
CCCCc1nc(O)c(C(=O)N2CCC(c3cccc(Cl)c3)CC2)c(O)c1-c1c(OC)cccc1OC [Example 56, 6-butyl-3-[4-(3-chlorophenyl)piperidine-1-carbonyl]-5-(2,6-dimethoxyphenyl)pyridine-2,4-diol] | 10 to 100 | – | –
CCCCc1nc(O)c(C(=O)N2CCN(c3nc(-c4ccccc4)ns3)CC2)c(O)c1-c1c(OC)cccc1OC [Example 60, 6-butyl-5-(2,6-dimethoxyphenyl)-3-[4-(3-phenyl-1,2,4-thiadiazol-5-yl)piperazine-1-carbonyl]pyridine-2,4-diol] | 10 to 100 | – | –
CCCCc1nc(O)c(C(=O)N2CCC(c3ccccc3)CC2)c(O)c1-c1c(OC)cccc1OC [Example 62, 6-butyl-5-(2,6-dimethoxyphenyl)-3-(4-phenylpiperidine-1-carbonyl)pyridine-2,4-diol] | 10 to 100 | – | –
CCCCc1nc(O)c(C(=O)N2CCC(c3noc4cc(F)ccc34)CC2)c(O)c1-c1c(OC)cccc1OC [Example 65, 6-butyl-5-(2,6-dimethoxyphenyl)-3-[4-(6-fluoro-1,2-benzoxazol-3-yl)piperidine-1-carbonyl]pyridine-2,4-diol] | 10 to 100 | – | –
CCCCc1nc(O)c(C(=O)N2CCC(c3cc(-c4ccccc4)[nH]n3)CC2)c(O)c1-c1c(OC)cccc1OC [Example 67, 6-butyl-5-(2,6-dimethoxyphenyl)-3-[4-(5-phenyl-1H-pyrazol-3-yl)piperidine-1-carbonyl]pyridine-2,4-diol] | 100 to 300 | – | –
CCOCc1nc(O)c(C(=O)N2CC[C@H](c3ccccc3)C2)c(O)c1-c1c(OC)cc(F)cc1OC [Example 70] | – | – | EC50 (read-out: Human APJ cAMP EC50 Potency range): 10 to 100 nM
CCOCc1nc(O)c(C(=O)N2CCC(c3ccc(Cl)cn3)C2)c(O)c1-c1c(OC)cccc1OC (stereo not drawn) [Example 77, 3-[3-(5-chloropyridin-2-yl)pyrrolidine-1-carbonyl]-5-(2,6-dimethoxyphenyl)-6-(ethoxymethyl)pyridine-2,4-diol] | – | 0.01 to 10 | –
CCCCc1nc(O)c(C(=O)N2CCC(c3ccc(F)cn3)C2)c(O)c1-c1c(OC)cccc1OC (stereo not drawn) [Example 79, 6-butyl-5-(2,6-dimethoxyphenyl)-3-[3-(5-fluoropyridin-2-yl)pyrrolidine-1-carbonyl]pyridine-2,4-diol] | – | 0.01 to 10 | –
CCCCc1nc(O)c(C(=O)N2CCC(c3ccc(F)cn3)C2)c(O)c1-c1c(OC)cccc1OC (stereo not drawn) [Example 80, 6-butyl-5-(2,6-dimethoxyphenyl)-3-[3-(5-fluoropyridin-2-yl)pyrrolidine-1-carbonyl]pyridine-2,4-diol] | – | 0.01 to 10 | –
CCCCc1nc(O)c(C(=O)N2CCC(c3ncc(F)cc3F)C2)c(O)c1-c1c(OC)cccc1OC (stereo not drawn) [Example 82, 6-butyl-3-[3-(3,5-difluoropyridin-2-yl)pyrrolidine-1-carbonyl]-5-(2,6-dimethoxyphenyl)pyridine-2,4-diol] | – | 0.01 to 10 | –
CCCCc1nc(O)c(C(=O)N2CCC(c3ncc(F)cc3F)C2)c(O)c1-c1c(OC)cccc1OC (stereo not drawn) [Example 83, 6-butyl-3-[3-(3,5-difluoropyridin-2-yl)pyrrolidine-1-carbonyl]-5-(2,6-dimethoxyphenyl)pyridine-2,4-diol] | – | 0.01 to 10 | –
CCOCc1nc(O)c(C(=O)N2CCC(c3ncc(F)cc3F)C2)c(O)c1-c1c(OC)cccc1OC (stereo not drawn) [Example 85, 3-[3-(3,5-difluoropyridin-2-yl)pyrrolidine-1-carbonyl]-5-(2,6-dimethoxyphenyl)-6-(ethoxymethyl)pyridine-2,4-diol] | – | 0.01 to 10 | –
COc1cccc(OC)c1-c1c(-c2ccc(F)cc2)nc(O)c(C(=O)N2CCC(c3ncc(F)cc3F)C2)c1O (stereo not drawn) [Example 87, (3-(3,5-difluoropyridin-2-yl)pyrrolidin-1-yl)(5-(2,6-dimethoxyphenyl)-6-(4-fluorophenyl)-2,4-dihydroxypyridin-3-yl)methanone] | – | 0.01 to 10 | –
COCCc1nc(O)c(C(=O)N2CCN(Cc3cccc(F)c3)CC2)c(O)c1-c1c(OC)cccc1OC [Example 88, 5-(2,6-dimethoxyphenyl)-3-{4-[(3-fluorophenyl)methyl]piperazine-1-carbonyl}-6-(2-methoxyethyl)pyridine-2,4-diol] | – | – | EC50 [3]: 100 to 300 nM
CCOCc1nc(O)c(C(=O)N2CCN(Cc3ccccc3F)CC2)c(O)c1-c1c(OC)cccc1OC [Example 89, 5-(2,6-dimethoxyphenyl)-6-(ethoxymethyl)-3-{4-[(2-fluorophenyl)methyl]piperazine-1-carbonyl}pyridine-2,4-diol] | – | – | EC50 [3]: 0.01 to 10 nM
